Structures can show the parent of a compound that is named as a salt.
Legend:
Hep3B = experiment: WST-8 cell viability assay, single agent in vitro toxicity; assay type: cell-based; settings: Homo sapiens, 72 hours of incubation, media containing 0.5% DMSO, read-out: IC50 Values of Each Drug per HCC Cell Line
Procedure: (§1) Growth inhibition by the base drugs used in this study was evaluated on three different hepatoma cell lines—two human HCC lines and one rat cell line—using a 2-(2-methoxy-4-nitrophenyl)-3-(4-nitrophenyl)-5-(2,4-disulfophenyl)-2H-tetrazolium monosodium salt (WST-8) cell viability assay (Dojindo Molecular Technologies, Inc., Rockville, MD). Human cell lines Hep3B and HepG2 were obtained from ATCC (Manassas, VA) and cultured in EMEM cell culture medium (ATCC) supplemented with 10% fetal bovine serum (FBS). The rat hepatoma line McA-RH7777 was generously donated by the Larson Lab (Northwestern University, IL). This line was cultured in DMEM cell culture medium (ATCC) supplemented with 10% FBS. All lines were grown at 37° C. in a humidified atmosphere of 5% CO2.
(§2) To prevent precipitation of the drugs, media containing 0.5% DMSO was used throughout all the studies. Doubling times of the cell lines were similar; therefore, cells were plated at the same density of 7,000 cells per well in 96-well plates for 24 hours. Media was removed, cells were washed with PBS, and treatment was applied. Drug concentrations were varied to include data points ranging from non-toxic to highly toxic. Following 72 hours of incubation, the media was removed and cell viability was quantified using the WST-8 assay with a SpectraMax M2 spectrophotometer (Molecular Devices, Sunnyvale, CA).
(§3) Each experiment was performed with N=6, assessing viability at 10 different drug concentrations. Relative cell viability was calculated by normalizing against the UV absorbance of untreated cells. GraphPad Prism was used to plot relative cell viability as a function of log drug concentration with a non-linear least-squares regression analysis and calculation of IC50 values.

human HCC HepG2 cells = experiment: as above; assay type: cell-based; settings: 72 hours of incubation, media containing 0.5% DMSO, read-out: IC50 Values of Each Drug per HCC Cell Line
Procedure: as §1, §2, §3

[1] = tested on: rat hepatoma line McA-RH7777; experiment: as above; assay type: cell-based; settings: 72 hours of incubation, media containing 0.5% DMSO, read-out: IC50 Values of Each Drug per HCC Cell Line
Procedure: as §1, §2, §3

[2] = In vitro drug release from 9% SELP-815K gels (RP-HPLC); assay type: physicochemical; settings: for cumulative release of sorafenib: 9% SELP-815K, 14-day release
Procedure: (§4) SELP-815K formulations were prepared at 12% w/w in 1× phosphate buffered saline (PBS). Powder drugs were milled for 12 hours to reduce crystal size and variability using a custom built ball mill. Milled samples were inspected microscopically to verify homogeneity. Two methods of drug incorporation were investigated. […] Drug loading concentration was chosen based on manufacturer specified loading of doxorubicin in DEBs. The same loading was used for sorafenib.
(§5) For dual drugs, drug loading was 12.5 mg/mL for each drug, for a total drug loading of 25 mg/mL. Samples were chilled on ice until tested. Samples incorporating powder drug in 12% w/w SELP-815K were prepared without dilution; however, the volume addition of the powdered drug was not considered in the calculation of the SELP concentration. Samples with powdered drug were tested at 25 and 50 mg/mL for single drug loaded samples and 25 mg/mL per drug for dual drug loaded samples.
The drug loaded SELP solutions were drawn into 0.5 cd insulin syringes and incubated overnight at 37° C. followed by cutting into gel disks as previously described. Weights were recorded. Individual gels were placed into 8 dram glass vials, to which 25 mL of release media consisting of 1×PBS, 1% SDS was added. The elution volume was chosen to ensure sink conditions and complete dissolution of both drugs, if all drug eluted immediately.
At predetermined time points of 1 hour, 3 hours, 6 hours, 12 hours, 1 day, 3 days, 5 days, 7 days, 10 days, 14 days, and 20 and 30 days for extended-release studies, a sample volume was removed for analysis and replaced with fresh media. Vials were sealed and maintained in a shaking incubator at 37° C., 120 rpm. The 9% SELP-815K gels underwent release testing for 14 days. The 12% SELP-815K gels were tested for 30 days.
Drug content in the release media was detected by reverse phase high performance liquid chromatography (RP-HPLC; Agilent Technologies, Santa Clara, CA) using a RPC18 X-Terra column (4.6×250 mm, 5 µm particle size; Waters, Milford, MA) and a guard column of the same packing material. The elution gradient at time zero began with mobile phase of 40% 20 mM ammonium acetate and 60% acetonitrile (CAN), which increased to 72% CAN over 9 minutes at a flow rate of 1 mL/min. Percent cumulative release was calculated using the experimental drug loading per disk based on the pre-release weight.

[3] = In vitro drug release from 12% SELP-815K gels (RP-HPLC); assay type: physicochemical; settings: day 30
Procedure: as §5
The drug loaded SELP solutions were drawn into 0.5 cd insulin syringes and incubated overnight at 37° C. followed by cutting into gel disks as previously described. Weights were recorded. Individual gels were placed into 8 dram glass vials, to which 25 mL of release media consisting of 1×PBS, 1% SDS was added. The elution volume was chosen to ensure sink conditions and complete dissolution of both drugs, if all drug eluted immediately. […]
Drug content in the release media was detected by reverse phase high performance liquid chromatography (RP-HPLC; Agilent Technologies, Santa Clara, CA) using a RPC18 X-Terra column (4.6×250 mm, 5 µm particle size; Waters, Milford, MA) and a guard column of the same packing material. […] Percent cumulative release was calculated using the experimental drug loading per disk based on the pre-release weight.

[4] = Rheological characterization of drug loaded 9% SELP-815K; assay type: physicochemical; settings: SELP solution with dox HCl, as drug powder or DMSO solution, 25 mg/mL
Procedure: as §4, §5
An AR 550 stress-controlled rheometer from TA Instruments (New Castle, DE) was used for rheological testing. A cone-and-plate configuration equipped with a stainless steel 20 mm diameter, 4 degree geometry was used. An oscillation procedure with a temperature ramp from 18° C. to 37° C. […]

Row | SMILES | IC50 (Hep3B) [µM] | IC50 (human HCC HepG2 cells) [µM] | IC50 [1] [µM] | loaded doxorubicin released in the first day ([2]; 9% SELP-815K gels, base form, in DMSO or powder, first day) | loaded doxorubicin released by day 14 ([2]; 9% SELP-815K gels, base form, day 14) | total drug content of doxorubicin released (cumulative release) ([3]; 25 mg/mL single drug loaded and dual drug loaded gels) [%] | cumulative release of doxorubicin ([3]; 50 mg/mL single drug loaded gel) [%] | viscosity relative to the SELP control with no drug [4] | cumulative release of sorafenib ([2]; DMSO dissolved drug, dual drug loaded gels (12.5 mg/mL each drug)) [%] | cumulative release of sorafenib ([2]; DMSO dissolved drug, single drug loaded gel (25 mg/mL)) | cumulative release of sorafenib ([2]; powder drug, dual drug loaded gel (12.5 mg/mL each drug)) [%] | cumulative release of sorafenib ([2]; powder drug, single drug loaded gel (25 mg/mL)) [%]
1 | COc1cccc2c1C(=O)c1c(O)c3c(c(O)c1C2=O)C[C@@](O)(C(=O)CO)C[C@@H]3O[C@H]1C[C@H](N)[C@H](O)[C@H](C)O1 [Doxorubicin] | 0.29 ± 0.04 | 0.62 ± 0.41 | 0.48 ± 0.32 | More than 50% | nearly all of the loaded drug released | 30 | 15 | – | – | – | – | –
2 | COc1cccc2c1C(=O)c1c(O)c3c(c(O)c1C2=O)C[C@@](O)(C(=O)CO)C[C@@H]3O[C@H]1C[C@H](N)[C@H](O)[C@H](C)O1 [dox HCl, doxorubicin hydrochloride] | – | – | – | – | – | – | – | more than 2 fold | – | – | – | –
3 | CNC(=O)c1cc(Oc2ccc(NC(=O)Nc3ccc(Cl)c(C(F)(F)F)c3)cc2)ccn1 [Sorafenib] | 3.47 ± 0.2 | 1.72 ± 0.7 | 6.88 ± 0.83 | – | – | – | – | – | 95 | less than 60% | 22 | 8.7
